Data taken from patent publication US9289444B2, “Composition for promoting hematogenesis containing quercetin 3-O-β-(2″-galloyl)-rhamnopyranoside as active ingredient” (Chungbuk National University Industry Academic Cooperation …, priority 2011, dated 2016).

Assays:
BMNCs = experiment: Cell viability assay (CCK-8), normoxia or hypoxia; format: cell-based, mouse
From the text: (§1) Bone marrow mononuclear cells (BMNCs) were isolated from femurs and tibias of 8 to 12-week-old male C57BL/6 mice by a previously described protocol [Kroeger K, Collins M, Ugozzoli (2009) The preparation of primary hematopoietic cell cultures from murine bone marrow for electroporation. J. Vis. Exp. 23: pii:1026. doi:10.3791/1026] and were separated from dead cells and red blood cells (RBCs) by Histopaque ([…]) (Sigma-Aldrich Chemical, St. Louis, Mo., USA) density gradient centrifugation. Thereafter, the cells were cultured in Iscove's modified Dulbecco's media (IMDM) with 15% heat inactivated fetal bovine serum (FBS), 1% bovine serum albumin (BSA), 100 units/ml penicillin and 100 μg/ml streptomycin at 37° C. in 5% CO2 humidified air. The separated blood was cultured as described previously [Oswald J, et al. (2004). Mesenchymal stem cells can be differentiated into endothelial cells in vitro. Stem Cells, 22: 377-384.] to obtain bone marrow stromal cells in α-minimum essential medium (MEM) with 20% heat inactivated FBS, 100 units/ml penicillin and 100 μg/ml streptomycin at 37° C. in 5% CO2 humidified air.
The possible cytotoxicity of QGR was examined in BMNCs. The cells were plated with a density of 5×10^3 cells/well in 96 well plates in 200 μl of medium. The cells cultured for 24 hrs with variable concentrations of QGR in either normoxia or hypoxia conditions were evaluated using a cell counting-8 assay kit (CCK-8) according to the manufacturer's instructions (Dojindo Molecular Technologies, Rockville, Md., USA). Briefly, 20 μl of CCK-8 solution was added to each well. The plates were incubated for 2 hrs in an incubator at 37° C. The resulting color was assayed at 450 nm using an EL808 microplate absorbance reader (BIO-TEK, Winooski, Vt., USA).

[1] = tested on: bone marrow stromal cells; experiment: Real-time RT-PCR of hematopoietic cytokine mRNA; format: cell-based, mouse
From the text: as §1
To confirm whether QGR regulates the expression of hematopoietic cytokines in bone marrow stromal cells, real-time RT-PCR was performed. Bone marrow stromal cells (3×10^5 cells/plate) were incubated with either mouse rIL-3 (100 units/ml) plus rSCF (5 units/ml) plus rEpo (3 units/ml) or QGR (50, 100 or 200 μM/ml) in 60 mm-diameter cell culture plates. The cells were harvested after 4 hr of incubation and washed with PBS and total RNA were extracted using RNA extraction kit (Applied Biosystems, Carlsbad, Calif., USA). First strand synthesis of cDNA was carried out with 1 μg of total RNA using cDNA synthesis kit (Applied Biosystems, Foster City, Calif., USA). Real-time PCR using TaqMan probe PCR master mix kit (Applied Biosystems) was performed according to the manufacturer's instruction using a model 7500 Real-Time PCR System (Applied Biosystems). GAPDH mRNA was utilized as an internal standard to normalize target transcript expression. The relative ratios of SCF, GM-CSF, or Epo mRNA to GAPDH mRNA which can be used to quantify precisely the levels of each mRNA expression, were calculated with the standard curves.

[2] = tested on: lipopolysaccharide (LPS)-stimulated RAW 264.7 macrophage cells; conditions: cited from earlier work
[3] = tested on: bone marrow failure mouse induced by busulphan (BU); experiment: Histopathological features of bone marrow and osteoid formation in BU bone marrow failure model; format: in vivo, Balb/c mice
Protocol: Bone marrow failure model induced by administering busulphan (BU) was designed according to the procedures previously described by Molyneux et al (Cell Biol Toxicol 27, 13-40, 2011) and the scheme is shown in FIG. 8. BU (Sigma chemicals, Poole, Dorset, UK) was dissolved in acetone to a final concentration of 18.8 mg/ml, diluted five-fold with distilled water, and was intraperitoneally administered three times for 5 days with the dose of 0.2 ml BU solution per mouse. Equal amount of five-fold diluted acetone solution without BU was administered to vehicle control group. QGR was dissolved in dimethylsulfoxide and diluted with distilled water to a final concentration of 1.25%. Mice were orally administered every two days with QGR (0.25 mg/mouse) for 63 days. Seven or eight mice were sacrificed on days of 1, 5, 10, 16, 25, 40, 49, and 63 after BU administration and were investigated to confirm the effect of QGR to recover bone marrow failure.
In order to confirm histological bone marrow damage induced by BU administration and to investigate whether QGR recovers the damaged bone marrow, histopathological features of H&E staining slide of the respective group's bone marrow were observed and compared to each other among the groups. In addition, the degree of sinusoid damage in bone marrow was graded as normal, hemorrhage or discontinuous, regressed vessel, assigned with numerical value and compared to each other among the groups. Moreover, in order to investigate the effect of QGR on the differentiation and maturation from mesenchymal stem cells to osteoblast, the formation of osteoid in humerus was comparatively analyzed. Goldner's trichrome staining was carried for osteoid and the stained area of the respective group was compared with each other after determining the stained area by using an image analyzer.

[4] = 100 and 200 μM, vs rIL-3+rSCF+rEpo

CC1OC(Oc2c(-c3ccc(O)c(O)c3)oc3cc(O)cc(O)c3c2=O)C(OC(=O)c2cc(O)c(O)c(O)c2)C(O)C1O (stereo not drawn) [QGR, quercetin 3-O-β-(2″-galloyl)-rhamnopyranoside]
cell viability (BMNCs; 50 μM, 24 hrs): significantly increased cell viability | cytotoxicity (BMNCs; BMNCs, 24 hrs, various concentrations): not cytotoxic | cell viability after hypoxic damage (BMNCs; QGR post-treatment 200 μM, hypoxic damage for 24 hrs): increased cell viability | viable cells under hypoxic damage (BMNCs; QGR pretreatment, hypoxic damage 24 hrs, vs untreated group, dose-dependent): increased the viable cells | mRNA expression levels of SCF, GM-CSF and Epo ([1]; 50, 100 or 200 μM/ml, 4 hrs, dose-dependent): increased | Epo mRNA compared to the positive control [1, 4]: significantly increased | GM-CSF mRNA compared to the positive control [1, 4]: significantly increased | SCF mRNA compared to the positive control ([1]; all concentrations, vs rIL-3+rSCF+rEpo): significantly increased | nitric oxide production [2]: inhibiting | degree of osteoid formation ([3]; Goldner's trichrome staining, vs positive control group): actively formed | number of cells in bone marrow of humerus (cellularity) ([3]; H&E, vs positive control group): recovered | number of regressed sinusoid ([3]; day 10): significantly decreased | number of normal sinusoid ([3]; day 10, vs positive control group (BU)): greater | number of normal sinusoids ([3]; day 63): increased | numbers of hemorrhagic sinusoids ([3]; day 63): significantly decreased | numbers of regressed sinusoids ([3]; day 63): significantly decreased | area of osteoid formation ([3]; from day 10 after QGR administration, vs positive control group): increased significantly | number of megakaryocytes surrounding sinusoid ([3]; from day 16 after QGR administration, vs positive control group): increased | sinusoidal endothelia in the bone marrow ([3]; vs severely damaged sinusoids in positive control group): recovered sinosoids
